The results in this text go back to patent publication US6030960A, “Method of treating hepatitis virus infections” (priority 1998, dated 2000).

≈ marks a conversion by molar mass, not a printed value. Entries after “also recorded” stand apart in the source; their conditions may differ. Read-outs that look alike come from different tables or passages of the source.

The subject of one data set is Hepatitis B virus. Description: Anti-hepatitis B virus activity in HEP-G2 cells persistently infected with HBV (Table 2). It is filed as cell-based. The settings on record: for activity at 10 µM: Hepatitis B virus, HepG2, 216 h. Put shortly:
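HBV-persistently infected HepG2 cells were dosed daily with 10 μM compound in 20% FBS medium for 9 days. Medium HBsAg and HBeAg were measured by EIA and virion DNA by slot-blot hybridisation, each relative to untreated controls. EC90 (90% drop in HBV DNA replication intermediates) came from linear regression.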

Data set [1] can be described thus: Cytotoxicity in HBV persistently infected human HEP G2 cells, neutral red dye uptake (Table 5). To be noted: human, hep-g2 cells. Type of data set: cell-based. Put shortly:
(§1)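 HBV-transfected HEP-G2 monolayers in RPMI-1640 were given compound at four serial concentrations in triplicate for nine days at 37 °C, with periodic medium replacement. Toxicity from 0.01% neutral red uptake (A510), as percent of nine untreated control wells on the same plate.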

Data set [2] deals with HEP G2 cells persistently infected with HBV. Described as above. It is filed as cell-based. The essentials: as §1
Another data set deals with HIV-1. It is filed as in vivo. The settings on record: rat, single oral dose of 15 mg/kg by gavage. The procedure: The biologic activity of alkyl lipid CP-51 was evaluated in vivo. Sprague Dawley rats were fasted for 18 hours and received a single oral dose of 15 mg/kg of the alkyl lipid CP-51 by gavage. An in-dwelling carotid catheter was used to harvest whole blood at various times post-dose. The plasma containing the alkyl lipid was diluted 1:2 to 1:128 in phosphate buffered saline and assayed for biologic activity using the HIV-1 syncytial plaque test. CEM-SS cell monolayers were infected with HIV-1 and overlaid with RPMI-1640 medium containing serial dilutions of plasma. After incubation for five days at 37° C., the number of HIV-1 syncytial plaques was counted as previously described (Kucera et al., AIDS Res. Human Retroviruses, 6: 491-501, (1990)).

Data set [3] relates to mouse precursor erythrocyte (CFU-E). Briefly: Cytotoxicity: inhibition of mouse precursor erythrocyte (CFU-E) colony formation. Type of data set: cell-based. The procedure: CP-51 and AZT were assayed for cytotoxicity by inhibition of mouse precursor erythrocyte (CFU-E) and granulocyte/macrophage (CFU-GM) cell colony formation.
The test system of data set [4] is granulocyte/macrophage (CFU-GM). Description: Cytotoxicity: inhibition of mouse granulocyte/macrophage (CFU-GM) colony formation. It is filed as cell-based. To be noted: read-out: inhibitory concentration 50% for colony formation (IC50). The procedure: CP-51 and AZT were assayed for cytotoxicity by inhibition of mouse precursor erythrocyte (CFU-E) and granulocyte/macrophage (CFU-GM) cell colony formation. Mouse bone marrow precursor cells were suspended in soft-agar-RPMI-1640 medium supplmented with cell growth factors and serial concentrations of alkyl lipid.

For a further data set, the system named is Friend-Leukemia virus. Briefly: Inhibition of retrovirus-induced splenomegaly in Friend-Leukemia virus infected mice (Table 9). It is filed as in vivo. The procedure: Mice were infected I.P. with Friend-Leukemia virus and not treated or treated I.P. with daily doses of phospholipid. After 14 days infection and treatment, the mice were sacrificed, the spleens were removed and weighed to determine the percentage, of control splenomegaly. […] Even a single dose of 25 mg/kg CP-51 inhibited splenomegaly by 36%.

Where [5] appears, read: % of Control Neutral Red Dye Uptake.
[6] abbreviates: Trial 1, read-out: % of Control Neutral Red Dye Uptake.
Where [7] appears, read: Trial 3, read-out: % of Control Neutral Red Dye Uptake.

On to `CCCCCCCCCCCCCCCCCC(=O)NCC(COP(=O)([O-])OCC[N+](C)(C)C)OCC` (racemic) [CP-51, rac-3-octadecanamido-2-ethyoxy-1-propylphosphocholine], for which the “activity against HBV-induced virion DNA and HBeAg syntheses” value in the data set on Hepatitis B virus (10 μM, in words) is recorded as “potent inhibitory activity”. Moreover, the activity at 10 µM in the data set with Hepatitis B virus (10 μM, 9 days treatment, read-out: Relative Level of HBeAg) was 28%; with Hepatitis B virus (10 μM, 9 days treatment, read-out: Relative Level of HBsAg), 99%; with Hepatitis B virus (10 μM, 9 days treatment, read-out: Relative Level of Virion DNA), 2%. Further, the anti-HBV activity entry in the data set on Hepatitis B virus (in words) is given as “most potent anti-HBV compound; also recorded: most potent anti-HBV activity”. Moreover, in data set [1] (setting [5]), the viability at 216 h, 3 µM was 98 ± 3%. Also, the viability at 216 h, 10 µM in data set [1] (setting [5]) was found to be 102 ± 1%. Further, the viability at 216 h, 30 µM in data set [1] (setting [5]) was 100 ± 3%. For the same compound, the “Cell toxicity (greater than 50% depression of dye uptake)” value in data set [2] is “did not occur”. Moreover, the “% of Control Neutral Red Dye Uptake” value in data set [2] (human, hep-g2 cells, 216 h, 3 µM) is reported as 101 ± 1 % of Control. For the same compound, in the data set on HIV-1, the “absorption into the blood” value is recorded as “rapidly absorbed into the blood of rats”. Moreover, the “biologically active concentrations in the blood (plasma)” value in the data set on HIV-1 (HIV-1 syncytial plaque test) was “biologically active concentrations of the compound CP-51 were obtained in the blood (plasma)”. Moreover, the “cytotoxicity relative to AZT” value in data set [3] (CFU-E and CFU-GM, in words) is given as “significantly less cytotoxic than AZT”. For the same compound, the IC50 was found to be 41 µg/mL (≈ 74.4 µM) in data set [3] (Mus musculus, Erythrocyte, read-out: inhibitory concentration 50% for colony formation (IC50)) and 11 µg/mL (≈ 20 µM) in data set [4]. Moreover, the entries for the “inhibition of retrovirus-induced splenomegaly” value with Friend-Leukemia virus (12.5 mg/kg/day intraperitoneally) and in the data set on Friend-Leukemia virus (single dose of 25 mg/kg) were 43% and 36%, respectively. The “% of Control Splenomegaly” value was 43 % of Control with Friend-Leukemia virus (12.5 mg/kg/day, daily treatment) and 36 % of Control in the data set on Friend-Leukemia virus (25 mg/kg, one treatment). The “anti-retrovirus activity in infected animals” value in the data set on Friend-Leukemia virus (in words) was “has anti-retrovirus activity in infected animals”.

For the compound `Nc1ccn([C@H]2CC[C@@H](CO)O2)c(=O)n1` [2',3'-dideoxycytidine, 2', 3'-dideoxycytidine, reference compound], the activity at 10 µM turned out to be 108% with Hepatitis B virus (read-out: Relative Level of HBeAg), 106% in the data set on Hepatitis B virus (read-out: Relative Level of HBsAg) and 2% with Hepatitis B virus (read-out: Relative Level of Virion DNA). For the same compound, the viability at 216 h, 10 µM in data set [1] (Trial 1, 10 μM, read-out: % of Control Neutral Red Dye Uptake) was found to be 101 ± 2%; in data set [1] (Trial 2, 10 μM, read-out: % of Control Neutral Red Dye Uptake), 101 ± 3%; in data set [1] (Trial 3, 10 μM, read-out: % of Control Neutral Red Dye Uptake), 100 ± 1%. Also, the viability at 216 h, 30 µM in data set [1] (Trial 1, 30 μM, read-out: % of Control Neutral Red Dye Uptake) came to 100 ± 1%; in data set [1] (Trial 2, 30 μM, read-out: % of Control Neutral Red Dye Uptake), 102 ± 2%; in data set [1] (Trial 3, 30 μM, read-out: % of Control Neutral Red Dye Uptake) it was 102 ± 1%. Besides, the viability at 216 h, 100 µM in data set [1] (setting [6]) turned out to be 97 ± 2%; in data set [1] (setting [7]) it was 99 ± 2%. The viability at 216 h, 300 µM in data set [1] (setting [6]) was 34 ± 4%; in data set [1] (Trial 2, read-out: % of Control Neutral Red Dye Uptake), 40 ± 4%; in data set [1] (setting [7]), 35 ± 2%. In addition, the viability at 216 h, 1000 µM in data set [1] (Trial 2, 1000 μM, read-out: % of Control Neutral Red Dye Uptake) was 12 ± 5%.
